Experimental data reported in patent US8299052B2, “Pharmaceutical compositions and methods for improved bacterial eradication” (Shionogi Inc., priority 2006, dated 2012).
In brackets after ≈: the same amount, converted by molar mass. Where two headings read alike, the source gives them in different places. Marks after values point to notes of the source that are not given here.

Tests used:
Streptococcus pyogenes [1] = settings: Omnicef label, Tack et al, AAC 1998; cited from earlier work
Streptococcus pyogenes [2] = test: MIC-90 of penicillin VK for Streptococcus pyogenes; format: cell-based; settings: where study did not report MIC, assumed equal to MIC determined in Applicants' Phase III trial
From the text: The information in Table 1 was collected from several studies published in the literature. Information such as drug, regimen, Days Tx and Eradication can be taken directly from the literature articles. Information such as the MIC will often have been determined as part of the study and may be reported in the article, but in many cases it may not have been determined or reported.

Streptococcus pyogenes [3] = test: Daily T>MIC and Total T>MIC calculated from pharmacokinetic model (WinNonlin) plasma profiles
Procedure: The Daily T>MIC must also be calculated for each different regimen, and at the relevant MIC. This information was not presented in any of the articles and so it was calculated by Applicants. The Daily T>MIC is calculated for each regimen by creating a plasma profile from pharmacokinetic data published in the literature. Prior to creating the plasma profile a pharmacokinetic model is developed from plasma profiles from one or more doses reported in the literature. […] The models are industry standard compartmental models, generated with WinNonlin, a common program used in the pharmaceutical industry for pharmacokinetic analysis and modeling. Once the Daily T>MIC for each regimen has been calculated, the Total T>MIC is calculated by multiplying the Daily T>MIC by the Duration of Therapy (Days Tx in the table). Thus a composite parameter, Total T>MIC, is constructed that includes both factors relevant to eradication of Streptococcus pyogenes by a given regimen. The equation can then be used to determine the Total T>MIC required to achieve eradication rates ≧85% (or any other desired eradication rate).

Streptococcus pyogenes [4] = settings: cited from earlier work

MIC90 (Streptococcus pyogenes [2]): 0.015 µg/mL (≈ 0.0428 µM)
Daily T > MIC (Streptococcus pyogenes [3]; 250 QID, MIC-90 0.015): 55.30%
Daily T > MIC (Streptococcus pyogenes [3]; 250 QID, MIC-90 0.03): 46.40%
Daily T > MIC (Streptococcus pyogenes [3]; 250 TID, MIC-90 0.015): 39.29%
Daily T > MIC (Streptococcus pyogenes [3]; 500 TID, MIC-90 0.015): 48.10%
Daily T > MIC (Streptococcus pyogenes [3]; 600 TID, MIC-90 0.015): 49.80%
Daily T > MIC (Streptococcus pyogenes [3]; 750 QD, MIC-90 0.015): 17.30%
Daily T > MIC (Streptococcus pyogenes [3]; 800 BID, MIC-90 0.015): 35.00%
Structure (SMILES): CC1(C)S[C@@H]2[C@H](NC(=O)COc3ccccc3)C(=O)N2[C@H]1C(=O)O [Pen VK, penicillin VK]
MIC-90 (Streptococcus pyogenes [1]): 0.03* μg/mL
% Erad (Streptococcus pyogenes [4]; 250 QID, Days Tx 10, MIC-90 0.03, Omnicef label, Tack et al, AAC 1998): 82%
% Erad (Streptococcus pyogenes [4]; 250 QID, Days Tx 10, McCarty 1993): 100%
% Erad (Streptococcus pyogenes [4]; 250 QID, Days Tx 10, Mullen 992): 85.5%
% Erad (Streptococcus pyogenes [4]; 250 TID, Days Tx 5, Gerber et al, AJDC 1987): 92%
% Erad (Streptococcus pyogenes [4]; 250 TID, Days Tx 10, Gerber et al, AJDC 1987): 96%
% Erad (Streptococcus pyogenes [4]; 500 TID, Days Tx 0 (spontaneous eradication), Zwart et al. BMJ 2000): 7%
% Erad (Streptococcus pyogenes [4]; 500 TID, Days Tx 3, Zwart et al, BMJ 2000): 41%
% Erad (Streptococcus pyogenes [4]; 500 TID, Days Tx 7, Zwart et al, BMJ 2000): 72%
% Erad (Streptococcus pyogenes [4]; 500 TID, Days Tx 10, Ketek SBA, Norrby et al, Scand J Infect Dis 2001): 89%
% Erad (Streptococcus pyogenes [4]; 600 TID, Days Tx 10, Carbon et al, J Antimicrob Chemother 1995): 86%
% Erad (Streptococcus pyogenes [4]; 750 QD, Days Tx 10, Gerber et al, AJDC 1989): 82%
% Erad (Streptococcus pyogenes [4]; 800 BID, Days Tx 5, Stromberg et al, Scand J Infect Dis 1988): 73%
% Erad (Streptococcus pyogenes [4]; 800 BID, Days Tx 10, Stromberg et al, Scand J Infect Dis 1988): 94%
